The source made the active and inactive calls.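 Rule for the calls: active = maximal inhibition of USP17 at or above 30% in the confirmation dose-response, a value not among the printed readouts; inactive = the rest.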
What follows are compounds tested against Ubiquitin carboxyl-terminal hydrolase 17-like protein 5 (Homo sapiens) (UniProt A8MUK1) (assay: ubiquitin-specific protease 17 inhibitors, concentration series, biochemical, verification of primary actives (AID 1645864)). Details: purified USP17, ubiquitin-rhodamine cleavage fluorescence, 3 h.
Chain of Ubiquitin carboxyl-terminal hydrolase 17-like protein 5 (Homo sapiens) (A8MUK1 whole entry, looked up): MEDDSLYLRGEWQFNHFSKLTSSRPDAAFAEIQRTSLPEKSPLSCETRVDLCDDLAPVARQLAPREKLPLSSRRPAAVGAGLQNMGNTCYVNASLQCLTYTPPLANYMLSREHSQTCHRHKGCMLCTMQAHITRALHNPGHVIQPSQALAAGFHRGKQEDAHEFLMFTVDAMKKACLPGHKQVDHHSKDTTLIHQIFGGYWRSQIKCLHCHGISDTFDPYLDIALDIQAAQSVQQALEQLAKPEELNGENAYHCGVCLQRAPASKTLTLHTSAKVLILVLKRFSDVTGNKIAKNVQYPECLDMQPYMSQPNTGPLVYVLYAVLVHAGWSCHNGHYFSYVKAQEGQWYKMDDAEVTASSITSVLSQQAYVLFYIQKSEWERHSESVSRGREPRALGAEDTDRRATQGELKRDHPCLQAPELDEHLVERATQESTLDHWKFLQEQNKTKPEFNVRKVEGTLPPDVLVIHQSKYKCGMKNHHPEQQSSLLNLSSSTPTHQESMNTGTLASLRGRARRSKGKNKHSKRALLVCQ

Row | Structure (SMILES) | IC50
1 | CCn1ccc2c(cc(C(=O)Nc3ccccc3F)n2C)c1=O | > 50 µM (inactive)
2 | Cc1nnc(NC(=O)C2CCN(c3ccc(S(N)(=O)=O)cc3[N+](=O)[O-])CC2)o1 | 29.5 µM
3 | Cc1ccccc1NC(=O)c1cc(S(=O)(=O)N2CCCCCC2)ccc1Cl | 35.2 µM
4 | COc1ccc(OC)c(NC(=O)CSc2nc(C)nc3c2oc2ccccc23)c1 | 2.54 µM
5 | COc1ccc(NC(=O)COc2ccc3ccc(=O)oc3c2)cc1 | 33.5 µM
6 | Cc1ccc(N=Cc2sc(O)c3ccccc23)c(C)c1 | > 50 µM (inactive)
7 | CCOc1ccc(CCNC(=O)CCC(=O)Nc2ccc3nc(N4CCN(C)CC4)cc(C)c3c2)cc1OCC | > 50 µM (inactive)
8 | O=S(=O)(c1cccc(F)c1)N1CCc2nc3ccccc3n2CC1 | 3.12 µM
9 | Cc1c(Cl)cccc1NC(=O)Cn1ccc2ccccc2c1=O | 2.23 µM
10 | CC1CCc2c(sc3ncnc(OCc4cccc([N+](=O)[O-])c4)c23)C1 (stereo unspecified) | > 50 µM (inactive)
11 | COc1ccc(OC)c(NC(=O)CS(=O)(=O)c2cn(CC(=O)N3CCC(C)CC3)c3ccccc23)c1 | 27.2 µM
12 | c1cnc(-c2n[nH]c(C3CCN(C4CCNC4)CC3)n2)cn1 (stereo unspecified) | > 50 µM (inactive)
13 | Cc1ccc(Cn2nnc(-c3noc(-c4ccc[nH]4)n3)c2C)cc1 | > 50 µM (inactive)
14 | O=C(Nc1ccncc1)c1ncoc1-c1cccc(Cl)c1 | > 50 µM (inactive)
15 | COc1ccc(Cn2c(SCc3ccc(C(=O)NCCc4ccccc4)cc3)nc3ccncc32)cc1 | > 50 µM (inactive)
16 | Cc1cc(CSc2ncccc2C(=O)Nc2ccnn2Cc2cccnc2)no1 | > 50 µM (inactive)
17 | Cc1cc(SCc2ncon2)c(C)cc1Cl | > 50 µM (inactive)
18 | COc1ccc(Nc2ncc(C(=O)Nc3ccc(Oc4ccccc4)cc3)c3ccccc23)cc1 | > 50 µM (inactive)
19 | Cc1nc(-c2ccccc2F)sc1C(=O)Nc1cccnc1 | 35.6 µM
20 | C/C1=C\CCC(C)C(O)CC(O)C(C)C(O)CCC(C)C(O)CC2(O)OC(CC(OC(=O)CC(=O)O)CC(O)CC(O)CC(O)C(C)C(O)/C=C/C(C)C(C(C)CCCCCCCCN=C(N)N)OC1=O)CC(O)C2O (stereo unspecified) | > 50 µM (inactive)
21 | Oc1ccc(-c2nc3ccc(Cl)cn3c2NC2CCCCC2)cc1 | 15.2 µM
22 | CCOc1ccc(N2C(=O)c3ccccc3C2C(=O)NCc2ccccc2OC)cc1 (stereo unspecified) | 45.8 µM
23 | Cc1nn(C)c2c1[C@@H](c1ccc(F)c(Br)c1)[C@H](NC(=O)c1ccccc1)C(=O)N2 | > 50 µM (inactive)

Row | Structure (SMILES) | IC50
24 | Cc1nc(-c2noc3ccc(C(=O)Nc4cccnc4)cc23)cs1 | 42.5 µM
25 | COc1ccc(CNC(=O)c2[nH]nc3c2CCc2ccccc2-3)cc1 | 35.5 µM
26 | O=C(Nc1ccccc1)c1cn2c3c(cccc3c1=O)CC2 | 26.9 µM
27 | CC[C@H](C)C[C@H]1CC[C@](O)([C@](C)(O)C(=O)N[C@@H]2C(=O)N3NCCC[C@@H]3C(=O)N(O)[C@@H](C)C(=O)NCC(=O)N3NCCC[C@H]3C(=O)N(O)[C@H](C)C(=O)O[C@H]2C(C)C)O[C@@H]1C | 13.6 µM
28 | CS(=O)(=O)c1ccc(NC(=O)C2CN(c3nc4c(F)cccc4s3)C2)cc1 | 36.2 µM
29 | O=C(Cn1c(CSc2ccccc2)nc2ccccc21)Nc1ccccc1F | 39.6 µM
30 | O=C(NCc1ccc(F)cc1)c1cc(-n2cnnn2)ccc1Cl | 25.4 µM
31 | COc1ccc2cc1Oc1cc(ccc1OC)C(O)C13SSC4(C(=O)N1C)C(O)C1=COC=CC(OC2=O)C1N4C3=O (stereo unspecified) | > 50 µM (inactive)
32 | O=C(Nc1ccc2sccc2c1)c1ccc(F)cc1 | 40.6 µM
33 | O=C(O)c1ccccc1C(=O)Nc1ccc(SC(C(=O)Nc2cccc(Cl)c2)c2ccccc2)cc1 (stereo unspecified) | 23.4 µM
34 | COc1ccc(NC(=O)C2CCN(c3cncnc3N(C)C)CC2)cc1OC | > 50 µM (inactive)
35 | CCOC(=O)c1cccc(NC(=O)Nc2cccn3nc(C)nc23)c1 | > 50 µM (inactive)
36 | CC(C)c1nc2sc3c(NCc4ccco4)ncnc3c2c2c1CCC2 | > 50 µM (inactive)
37 | COc1ccc(S(=O)(=O)Nc2ccc(Nc3ccc(-n4cccn4)nn3)cc2)cc1 | 44.9 µM
38 | O=C(NCc1ccccc1)Nc1cccc2ccccc12 | 34 µM
39 | CC(=O)Nc1ccc(-n2cnc(C(=O)NCc3ccc(C)cc3)c2)nc1 | 27.1 µM
40 | Cc1cc(N2CCN(c3ncccn3)CC2)nc2ccc(NC(=O)/C=C/c3ccccc3Cl)cc12 | 12.6 µM
41 | COC(=O)c1cc(C)sc1NC(=O)c1cccc(OC)c1OC | > 50 µM (inactive)
42 | Cc1cc(C(=O)NC2(O)C(=O)c3ccccc3C2=O)n(C)n1 | 7.39 µM
43 | Cc1ccc(Nc2nc(Nc3cccc(F)c3)nc3nccnc23)c(C)c1 | > 50 µM (inactive)
44 | CC(C)=CCCC1(C)OC2=C(C(=O)c3cc(O)cc(O)c3C2=O)[C@H]2C=C(C)CC[C@H]21 (stereo partly specified) | 9.83 µM
45 | O=C(Nc1ccc(N2CCOCC2)cc1)c1ccc(-c2ccc(N3CCCC3)nn2)cc1 | > 50 µM (inactive)

Other lines, results leading:

Row | IC50 | Structure (SMILES)
46 | 29.9 µM | COc1ccccc1NC(=O)c1cc2c(C)nn(Cc3ccccc3)c2s1
47 | 40.2 µM | Nc1c(C(=O)NCCc2ccccc2)nnn1-c1ccc(F)cc1
48 | 34.3 µM | Nc1ncnc2c1ncn2[C@@H]1O[C@H](CO)C[C@@H]1O
49 | 3.03 µM | COc1ccc(Cn2c(=O)[nH]c3cc(C(=O)NCCCN4CCN(c5cccc(Cl)c5)CC4)ccc3c2=O)cc1
50 | 36.4 µM | COc1cccc2c1C(=O)c1ccc3c(c1C2=O)C(=O)CC(C)(O)C3 (stereo unspecified)
51 | > 50 µM (inactive) | CCc1nc(-c2cc(C(=O)N3CCOCC3)c3ccccn23)cs1
52 | > 50 µM (inactive) | COc1ccc(OC)c(-c2cc(C(=O)Nc3c(C)nn(Cc4ccccc4)c3C)no2)c1
53 | > 50 µM (inactive) | CN(C)Cc1ccc(C(=O)Nc2ccc(-c3nccs3)cc2)cc1
54 | 31.4 µM | Cc1cc(NC(=O)COc2ccc3oc4ccccc4c3c2)no1
55 | 32.2 µM | CCCc1nc2c(sc3nc4c(cc32)COC(C)(C)C4)c(=O)n1CC(=O)Nc1ccccc1C
56 | 4.85 µM | Cc1ccc(Cl)c(-n2nnc(C(=O)Nc3ccccc3C#N)c2C)c1
57 | > 50 µM (inactive) | Oc1ccc(-c2nc3cnccn3c2NCCc2ccccc2)c(O)c1
58 | 32.5 µM | CC(=O)c1ccc(NC(=O)CC2C(=O)Nc3nc4ccccc4n32)cc1 (stereo unspecified)
59 | > 50 µM (inactive) | NS(=O)(=O)c1cccc(NC(=O)CN2CCCc3ccccc32)c1
60 | > 50 µM (inactive) | CC1CCN(C(=O)c2cn(-c3cc(N4CCC(C)CC4)ncn3)cn2)CC1
61 | > 50 µM (inactive) | CCCc1c(C(=O)O)c(O[C@H]2O[C@H](C)[C@@H](OC)[C@H](OC)[C@@H]2OC)cc2cc3c(c(O)c12)C(=O)c1c(O)cc(O[C@@H]2O[C@@H](C)[C@H](O[C@H]4O[C@H](C)[C@@H](OC)[C@H](OC)[C@@H]4O)[C@@H](OC)[C@H]2O)cc1C3=O
62 | > 50 µM (inactive) | COc1ccc(CCNC(=O)c2ccc3ccccc3c2)cc1OC
63 | > 50 µM (inactive) | CC1CC(=O)N(Cc2ccc([N+](=O)[O-])cc2)c2ccccc2S1 (stereo unspecified)
64 | > 50 µM (inactive) | COCCNC(=O)c1ccnn1-c1ccc2ccc(-c3cccnc3)cn12
65 | > 50 µM (inactive) | Cn1cc(-c2noc(Cc3cccc(C(F)(F)F)c3)n2)ccc1=O
66 | > 50 µM (inactive) | COc1ccc(C(=O)CSc2ccc3nnc(CCNC(=O)c4ccc(OC)cc4)n3n2)cc1
67 | 2.16 µM | CCOc1ccc(NC(=O)Cn2c(=O)n(CCCCCC(=O)NCc3ccc(F)cc3)c(=O)c3sccc32)cc1
68 | > 50 µM (inactive) | c1ccc2c(Cc3nc(-c4ccncc4)no3)cccc2c1
69 | 7.65 µM | CC(C)c1cc(Nc2cccc(F)c2)n2nc(-c3cccnc3)nc2n1
70 | > 50 µM (inactive) | CCn1cc(NC(=O)CN2CCC3(CC=CCOC3)CC2)c(C)n1
71 | > 50 µM (inactive) | Cc1ccccc1NC(=O)c1ccn(COc2ccc(Cl)cc2)n1

Row | IC50 | Structure (SMILES)
72 | > 50 µM (inactive) | COc1cccc(-n2c(=O)[nH]c3c(C(N)=O)nc(-c4ccc(OCc5ccccc5)cc4)nc32)c1
73 | 38.1 µM | Cc1ccc(NC(=O)c2ccc(Nc3nnc(C)c4ccccc34)cc2)cc1
74 | 14.1 µM | O=C(Nc1cccc(-c2noc(C3CCC3)n2)c1)C1CC(=O)N(c2ccccc2)C1 (stereo unspecified)
75 | 0.323 µM | O=C(Nc1ccc(Cl)cc1F)c1cc(-c2ccccn2)n[nH]1
76 | > 50 µM (inactive) | CC1CCc2c(sc3nc(CC#N)[nH]c(=O)c23)C1 (stereo unspecified)
77 | 11.1 µM | CCOc1ccc2[nH]c(=O)c(CN(C(=O)c3cccs3)C3CCCC3)cc2c1
78 | 15.2 µM | Cc1cccc(C(=O)Nc2cccc(SC(C(=O)Nc3ccc(Cl)c(C(=O)O)c3)c3ccccc3)c2)c1 (stereo unspecified)
79 | > 50 µM (inactive) | CCCOc1ccc(C(=O)Nc2ccc(S(=O)(=O)Nc3cc(C)nc(C)n3)cc2)cc1
80 | > 50 µM (inactive) | CCC(=O)Nc1cccnc1-c1ccc(C(=O)Nc2cccc(OC)c2)cc1
81 | > 50 µM (inactive) | O=C(NC(Cc1ccccc1)c1nc2ccccc2[nH]1)c1ccccn1 (stereo unspecified)
82 | > 50 µM (inactive) | CC(=O)CN1CC2(CCN(Cc3ccc(F)cc3)CC2)COc2ccccc2S1(=O)=O
83 | > 50 µM (inactive) | CS(=O)(=O)n1nc(NCc2ccc(F)cc2)nc1NCc1ccc(F)cc1
84 | 36.9 µM | COc1ccc(-c2nc(CNC(=O)COc3ccc(C)cc3)cs2)cc1
85 | > 50 µM (inactive) | CCN1CCN(C(=O)CCCN(c2ccccc2)S(C)(=O)=O)CC1
86 | 38.4 µM | O=C1N[C@@H](Cc2ccccc2)C(=O)N2[C@H]3Nc4ccccc4[C@@]3([C@]34C[C@H]5C(=O)N[C@@H](Cc6ccccc6)C(=O)N5[C@H]3Nc3ccccc34)C[C@@H]12
87 | 28.2 µM | O=C(Nc1ccc(F)cc1F)NC1Cc2ccccc2C1
88 | 34.2 µM | Cc1ccc(CNC(=O)c2ccc(N3C(=O)[C@@H]4Cc5ccccc5CN4C3=O)cc2)cc1
89 | 2.23 µM | Cc1cccc(C)c1NC(=O)Cn1c(=O)n(CCCCC(=O)NCc2ccc3c(c2)OCO3)c(=O)c2ccccc21
90 | 42.4 µM | Cc1ccc(Cn2nnc(C(=O)NCc3ccco3)c2-n2cccc2)cc1
91 | > 50 µM (inactive) | O=C(Cc1noc2ccccc12)N1CCN(c2ccc([N+](=O)[O-])cc2)CC1
92 | > 50 µM (inactive) | COc1cc(NC(=O)c2cc(-c3ccncc3)n(-c3ccc(F)cc3)n2)cc(OC)c1
93 | 22.6 µM | O=C1Cc2ccccc2C(=O)N1c1ccc2c(c1)OCO2
94 | 1.98 µM | Cc1ccc2[nH]c(=O)c(-c3nc4ccc(C)cn4c3NCc3ccc(F)cc3)cc2c1
95 | > 50 µM (inactive) | CCOC(=O)c1c(C)oc2nc(CSc3ccccc3)[nH]c(=O)c12
96 | 35.5 µM | O=C(CNc1nc(Nc2ccccc2F)nc(Nc2ccccc2F)n1)Nc1ccccc1

— PubChem BioAssay AID1645864 (Buhrlage Lab, Dana-Farber Cancer Institute and Novartis …, 2021)
